The values below come from patent US5821240A, “Pyrimido[5,4]-dipyrimidines, pharmaceuticals containing them, their use and processes for the preparation thereof” (Dr. Karl Thomae GmbH, priority 1996, dated 1998).

In assay [1] the test system is F/L-HERc cells expressing human EGF-R. Briefly: Inhibition of EGF-dependent proliferation of F/L-HERc cells. It counts as cell-based, murine cell line; human EGF-R. As to conditions: EGF 20 ng/ml, 37° C., 48 hours. An excerpt: (§1) In this case, an interleukin-3 (IL-3)-dependent cell line of murine origin was used and was genetically modified in such a way that it expresses functional human EGF-R. Proliferation of these cells, which are called F/L-HERc, can therefore be stimulated either by murine IL-3 or by EGF (see von Ruden, T. et al. in EMBO J. 7, 2749-2756 (1988) and Pierce, J. H. et al. in Science 239, […] (1988)).
(§2) The starting material for the F/L-HERc cells was the cell line FDC-P1 whose preparation has been described by Dexter, T. M. et al. in J. Exp. Med. 152, 1036-1047 (1980). However, it is also possible as an alternative to use other growth factor-dependent cells (see, for example, Pierce, J. H. et al. in Science 239, 628-631 (1988), Shibuya, H. et al. in Cell 70, 57-67 (1992) and Alexander, W. S. et al. in EMBO J. 10, 3683-3691 (1991)). Recombinant retroviruses as described in von Ruden, T. et al., EMBO J. 7, 2749-2756 (1988) Were used for expression of the human EGF-R cDNA (see Ullrich, A. et al. in Nature 309, 418-425 (1984)), with the difference that the retroviral vector LXSN (see Miller, A. D. et al. in BioTechniques 7, 980-990 (1989)) was employed for expression of the EGF-R cDNA, and the line GP+E86 (see Markowitz, D. et al. in J. Virol. 62, 1120-1124 (1988)) was used as packaging cell.
(§3) F/L-HERc cells were cultivated in RPMI/1640 medium (BioWhittaker), supplemented with 10% fetal calf serum (FCS, Boehringer Mannheim), 2 mM glutamine (BioWhittaker), standard antibiotics and 20 ng/ml human EGF (Promega), at 37° C. and 5% CO2. To investigate the inhibitor activity of the compounds according to the invention, 1.5×10^4 cells were cultivated in the above medium (200 μl) per well in triplicates in 96-well plates, stimulating proliferation of the cells either with EGF (20 ng/ml) or with murine IL-3. The source used for IL-3 was culture supernatants from the cell line X63/0 mIL-3 (see Karasuyama, H. et al. in Eur. J. Immunol. 18, 97-104 (1988)). The compounds according to the invention were dissolved in 100% dimethyl sulphoxide (DMSO) and added in various dilutions to the cultures, with the maximum DMSO concentration being 1%. The cultures were incubated at 37° C. for 48 hours.
(§4) To determine the inhibitory activity of the compounds according to the invention, the relative cell count was measured in O.D. units using the Cell Titre 96™ AQueous Non-Radioactive Cell Proliferation Assay (Promega). The relative cell count was calculated as a percent of the control (F/L-HERc cells without inhibitor), and the concentration of active substance which inhibits the proliferation of the cells by 50% (IC50) was inferred.

The test system of another assay is F/L-HERc cells. The experiment in a line: Inhibition of IL-3-dependent proliferation of F/L-HERc cells. The format is cell-based. The following applies: Mus musculus, murine IL-3, 37° C., 48 hours.
Source text: as §1, §2, §3, §4

For assay [2], the system named is human tumour cell line KB. Briefly: Inhibition of EGF/TGF-alpha-stimulated KB cell proliferation ([3H]-thymidine incorporation). The format is cell-based. As to conditions: TGF-alpha 10 ng/ml or EGF 20 ng/ml, serum-free, 60 hours then [3H]-thymidine 16-18 h. Here is the method:
KB cells (purchased from ATCC) were passaged in DMEM (BioWhittaker) in the presence of 10% FCS (Boehringer Mannheim), 50 μM beta-mercaptoethanol and standard antibiotics. The EGF-induced DNA synthesis was determined by measuring the incorporation of radioactively labelled thymidine as indicator of EGF/TGF-alpha-stimulated cell proliferation. To do this, the cells were washed twice and 1500 cells per well were plated out in a 96-well plate in 200 μl of IMDM (BioWhittaker) without serum in the presence of 50 μM beta-mercaptoethanol, standard antibiotics, TGF-alpha [10 ng/ml] or EGF [20 ng/ml] and of various concentrations of the substances according to the invention (triplicates, maximum DMSO concentration 1%, see proliferation t t with F/L-HERc cells). After 60 hours, [^3 H]-thymidine (0.1 μCi in 10 μl) was added for about 16-18 h.
A general note: Dividing cells build labelled thymidine or BrdU into new DNA.

As a reminder, the pIC50 is −log10 of the IC50, conventionally taken in molar units. A high value points to a low IC50.

Molecules are shown by their SMILES. pIC50: −log10 of the molar value.

In the case of `CCN(CC)CC(C)Nc1ncc2ncnc(Nc3ccc(F)c(Cl)c3)c2n1` (stereo not drawn) [1(21), 4-[(3-Chloro-4-fluorophenyl)amino]-6-[1-(N,N-diethylamino)-2-propylamino]pyrimido[5,4-d]pyrimidine], the pIC50 in assay [1] is 6.52; with F/L-HERc cells, under 6.00; in assay [2], 6.00 to 7.00.
The like results for `Nc1c(Cl)cc(Nc2ncnc3cnc(N[C@H]4CC[C@H](C(=O)O)CC4)nc23)cc1Cl` [1(16), 4-[(4-Amino-3,5-dichlorophenyl)amino]-6-[(trans-4-carboxycyclohexyl)amino]pyrimido[5,4-d]pyrimidine] were, in that order, 7.70, under 6.00 and 6.00 to 7.00.
On the same counts, the results for `NCC1CCN(c2ncc3ncnc(Nc4ccc(F)c(Cl)c4)c3n2)CC1` [1(7), 4-[(3-Chloro-4-fluorophenyl)amino]-6-[4-(aminomethyl)-1-piperidinyl]pyrimido[5,4-d]pyrimidine] are 8.10, under 6.00 and 6.00 to 7.00.
On the same counts, the results for `Nc1c(Cl)cc(Nc2ncnc3cnc(N[C@H]4CC[C@H](C(=O)N5CCOCC5)CC4)nc23)cc1Cl` [1(17), 4-[(4-Amino-3,5-dichlorophenyl)amino]-6-[trans-4-(morpholinocarbonyl)cyclohexylamino]pyrimido[5,4-d]pyrimidine] are 9.00, under 6.00 and 6.00 to 7.00.
Consider `NCC1CCC(CNc2ncc3ncnc(Nc4ccc(F)c(Cl)c4)c3n2)CC1` (stereo not drawn) [1(22), 4-[(3-Chloro-4-fluorophenyl)amino]-6-[4-(aminomethyl)cyclohexylmethylamino]pyrimido[5,4-d]pyrimidine], for which the values for the pIC50 (in assay [1]; in the assay with F/L-HERc cells; in assay [2]) were 7.37, under 6.00 and 6.00 to 7.00, respectively.
For the compound `Fc1ccc(Nc2ncnc3cnc(N4CCC(C5CCNCC5)CC4)nc23)cc1Cl` [1(19), 4-[(3-Chloro-4-fluorophenyl)amino]-6-[4-(4-piperidinyl)-1-piperidinyl]pyrimido[5,4-d]pyrimidine], the pIC50 in assay [1] was 7.08; with F/L-HERc cells, under 6.00; in assay [2] it was 6.00 to 7.00.
On the same counts, the results for `COC(=O)N1CCC(Nc2ncc3ncnc(Nc4ccc(F)c(Cl)c4)c3n2)CC1` [1(8), 4-[(3-Chloro-4-fluorophenyl)amino]-6-[1-methoxycarbonyl-4-piperidinylamino]pyrimido[5,4-d]pyrimidine] are 8.52, under 5.00 and 6.00 to 7.00.
On the same counts, the results for `CC(CN1CCCCC1)Nc1ncc2ncnc(Nc3ccc(F)c(Cl)c3)c2n1` (stereo not drawn) [1(20), 4-[(3-Chloro-4-fluorophenyl)amino]-6-[1-(1-piperidinyl)-2-propylamino]pyrimido[5,4-d]pyrimidine] are 6.65, under 6.00 and 6.00 to 7.00.
